Reference: PubChem BioAssay AID179 (DTP/NCI, 2004)
Calls of active or inactive are those of the source.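 Rule for the calls: active = compounds giving half or more protection of infected cells from virus-caused growth loss, again on retest; inactive = the rest.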 Where a SMILES comes first, the peptide text is derived from it. Bridges are numbered along the chain shown (N, C = ends).

System: CEM cells HIV-1 protection, formazan growth assay
Experiment: NCI AIDS Antiviral Assay
Settings: for IC50: measured here: growth of uninfected CEM cells
Outline: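 Protection of CEM cells against HIV-1 was scored from cell growth (soluble formazan) across five concentrations, with parallel uninfected cells. Lack of protection may reflect toxicity.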

| SMILES | EC50 | IC50 | outcome |
| --- | --- | --- | --- |
| O=C(/C=C/c1ccc(OCCCOc2ccc(/C=C/C(=O)c3ccccc3)cc2)cc1)c1ccccc1 | > 10.7 µM | > 10.7 µM | – |
| CCOC(=O)/C(=C\n1c(=O)sc2ccccc21)C(=O)c1ccccc1 | > 200 µM | 42.7 µM | – |
| CCCn1c2ccccc2c2ccc3c(c21)C(=O)C=CC3=O | > 200 µM | 1.17 µM | – |
| CCOC(=O)C(/C=N/C(=S)Nc1ccc(S(=O)(=O)Nc2ccccn2)cc1)=C(/O)c1ccccc1 | > 200 µM | 135 µM | – |
| S=C1NC(c2ccco2)N2C(=S)NC(c3ccco3)N12 (configuration not stated) | – | > 200 µM | inactive |
| O=S(c1ccccc1)[C@H]1CC2C3CC4C2C4C31 (some centres not stated) | > 107 µM | > 107 µM | – |
| S=C(SSSC(=S)N(C1CCCCC1)C1CCCCC1)N(C1CCCCC1)C1CCCCC1 | – | – | inactive |
| CCCC(=O)N[C@@H](Cc1cc(I)c(O)c(I)c1)C(=O)NCCCNCCCCNCCCNC(=O)[C@@H](N)CCCN=C(N)N | > 100 µM | 44.7 µM | – |
| COc1ccc(-c2onc(-c3ccc([N+](=O)[O-])cc3)c2C2=NCCN2)cc1 | > 12.9 µM | > 12.9 µM | – |
| NNC(=O)CC(=O)Nc1ccc(S(=O)(=O)c2ccc(NC(=O)CC(=O)NN)cc2)cc1 | > 200 µM | > 200 µM | – |
| COc1ccc(N(C(=O)Nc2ccc(Cl)c(Cl)c2)c2ccccc2)cc1 | > 200 µM | 126 µM | – |
| CCC1=CCN(c2cc(C)ccn2)OC1c1ccc(OC)cc1 (configuration not stated) | > 32.4 µM | > 32.4 µM | – |
| Cc1[nH]n(-c2nc(O)c(-c3ccccc3)c(=O)[nH]2)c(=O)c1CCO | > 200 µM | > 200 µM | – |
| CCOC(=O)C(/C=N/C(N)=S)=C(/O)c1ccccc1 | > 200 µM | > 200 µM | – |
| CC(=O)Nc1cc(N=Nc2ccc(N=Nc3ccc(NC(=O)c4ccc(N)cc4)cc3C)cc2C)c(S(=O)(=O)O)cc1N=Nc1ccc(C(=O)O)cc1 | > 123 µM | 115 µM | – |
| CCOC(=O)/C(=C/c1ccc(C(F)(F)F)cc1)N(CC)CC | > 158 µM | 64.6 µM | – |
| Cc1cc(C)nc(NS(=O)(=O)c2ccc(Nc3c4ccccc4nc4c(C(=O)N5CCN(CCO)CC5)cccc34)cc2)n1 | > 36.3 µM | > 36.3 µM | – |
| CCCC(=O)c1c(NOC2OCC(OC(C)=O)C(OC(C)=O)C2OC(C)=O)nc(OC)n(C)c1=O (configuration not stated) | > 14.5 µM | > 14.5 µM | – |
| CCSC(=O)NNc1nc2ccccc2s1 | > 200 µM | 63.1 µM | – |
| COC(=O)C1CCC(=O)NCCCCC(NC(=O)C(N)CC(=O)O)C(=O)N1 (stereo not drawn) (H-Asp-Lys-Glu-OMe; lactam 2-3; configuration not given here) | > 200 µM | 91.2 µM | – |
| [N-]=[N+]=NCC(CO)OCn1cc(Cc2ccccc2)c(=O)[nH]c1=O (configuration not stated) | – | – | inactive |

| SMILES | EC50 | IC50 | outcome |
| --- | --- | --- | --- |
| COC(=O)[C@@]12CCCC(=O)[C@@H]1[C@H]1CCC[C@H]12 | 112 µM | > 200 µM | – |
| O=c1c(-c2ccc3c(c2)OCO3)coc2cc(O)ccc12 | > 200 µM | > 200 µM | – |
| Cc1ccc(S(=O)(=O)Nc2ccccc2NS(=O)(=O)c2ccc(C)cc2)cc1 | > 200 µM | 30.2 µM | – |
| COc1cc2c3c(c1)ncn3C(=O)CS2 | > 200 µM | > 100 µM | – |
| O=C(O)CSc1nnc(COc2ccccc2)n1-c1ccccc1 | > 741 µM | 407 µM | – |
| O=C(O)C(Cc1ccccc1)N1C(=O)N/C(=C\c2ccc(F)cc2)C1=O (configuration not stated) | – | – | inactive |
| S=C1NC(c2cccs2)N2C(=S)NC(c3cccs3)N12 (configuration not stated) | > 200 µM | > 200 µM | – |
| Cn1nc(Br)c(=O)n(C(c2ccccc2)c2ccccc2)c1=O | > 69.2 µM | 22.9 µM | – |
| O=C(O)CCSC(=O)Nc1ccccc1 | – | – | inactive |
| O=C1CCc2cc3c(cc21)CC1(Cc2ccccc2C1)C3 | > 200 µM | 4.57 µM | – |
| COc1ccc(C=C(C(C)=O)C(C)=O)cc1 | > 437 µM | 58.9 µM | – |
| N#Cc1ccc(C(O)C(F)(F)c2nc3ccccc3o2)cc1 (configuration not stated) | > 200 µM | > 200 µM | – |
| C=CCO[C@H]1CC[C@@]2(C)C(CC[C@]3(C)C2CC=C2[C@@H]4[C@@H](C)C(C)CC[C@]4(C(=O)O)CCC23C)C1(C)C (some centres not stated) | – | – | inactive |
| CCN(CC)CCCNc1ccc([N+](=O)[O-])c2nc3ccc(OC)cc3c(NCCCN(CC)CC)c12 | > 50.1 µM | 0.234 µM | – |
| O=S(=O)([O-])[O-].[Fe+2].c1ccc(/C(=N\Nc2ccccn2)c2ccccn2)cc1 | – | – | inactive |
| CN1C2(c3ccccc3)c3c(-c4ccccc4)sc(-c4ccccc4)c3C1(c1ccccc1)C1C(=O)N(c3ccccc3)C(=O)C12 (configuration not stated) | – | – | inactive |
| O=C(/C=C/c1cc(O)c(O)cc1O)OCCc1ccccc1 | > 200 µM | 9.33 µM | – |
| CN(C)CC/C=C1/c2ccccc2Sc2ccc(Cl)cc21 | > 200 µM | 27.5 µM | – |
| CC(CC[C@@H](C)C1CCC2[C@@H]3CC(O)C4CC(O)[C@@H](O)C[C@]4(C)C3CC[C@@]21C)C(C)(C)C (some centres not stated) | – | – | inactive |
| C[C@H](C(=O)C12CC3CC(CC(C3)C1)C2)[C@H](O)c1ccccc1 | – | – | inactive |
| COc1cc(/C=C/C(=O)/C=C/c2cc(OC)c(OC)c(OC)c2)cc(OC)c1OC | > 200 µM | 0.0977 µM | – |

| SMILES | EC50 | IC50 | outcome |
| --- | --- | --- | --- |
| CCOC(=O)C1CCCCc2sc(N)c(C#N)c21 (configuration not stated) | > 200 µM | 191 µM | – |
| N#CCc1nc(-c2cc3ccc(O)cc3oc2=O)cs1 | > 200 µM | 26.9 µM | – |
| c1ccc2c(c1)oc1cc3c(cc12)n1nnnc1c1cccn31 | > 200 µM | > 200 µM | – |
| CNC1C(OC2C(OC3C(O)C(O)C(N=C(N)N)C(O)C3N=C(N)N)OC(C)C2(O)CO)OC(CO)C(O)C1O (configuration not stated) | – | – | inactive |
| S=C1NC=CC(S)N1 (configuration not stated) | > 200 µM | > 200 µM | – |
| O=C1NC(=O)C(CCN2CCCCC2)(c2ccccc2)C(=O)N1 | > 200 µM | > 200 µM | – |
| CC(=O)N/N=C1/CC[C@@]2(C)C(=CC[C@H]3C4CCC(C(C)CCCC(C)C)[C@@]4(C)CCC32)C1(C)C (some centres not stated) | > 200 µM | 61.7 µM | – |
| CN(C)c1ccc(-c2nc3c(=O)n(C)c(=O)n(C)c3nc2-c2ccc(N(C)C)cc2)cc1 | > 200 µM | 126 µM | – |
| NC(Cc1csc2ccccc12)C(=O)O (configuration not stated) | > 200 µM | 19.5 µM | – |
| COc1ccc(OC)c2c(=S)c3ccccc3[nH]c12 | – | – | inactive |
| N=C(N)n1[nH]c2c(c1=O)CCC2 | > 200 µM | > 200 µM | – |
| CC(=O)OCC1OC(N2C(S)=C(C#N)C(c3ccco3)C(C(C)=O)=C2c2ccccc2)C(OC(C)=O)C(OC(C)=O)C1OC(C)=O (configuration not stated) | 95.5 µM | > 200 µM | – |
| CC1(C)C(=O)/C(=C/c2ccccc2)C(C)(C)C1(C)C | – | – | inactive |
| CCOC(=O)CCC(NC(=O)c1ccc(Nc2nc3ccccc3nc2C(=O)OCC)s1)C(=O)OCC (configuration not stated) | > 200 µM | > 200 µM | – |
| CCCN1CN(C(C(=O)N[C@@H]2C(=O)N3C2SC(C)(C)C3C(=O)O)c2ccccc2)CSC1=S (some centres not stated) | > 257 µM | 148 µM | – |
| CC(=O)NC(Cc1ccccc1)NC(=O)O (configuration not stated) | > 200 µM | > 200 µM | – |
| COc1ccc(CCN(C)CCCC2(C#N)c3ccccc3-c3ccccc32)cc1OC | > 60.3 µM | 47.9 µM | – |
| COC(=O)c1cc2c(cc1CC(Cc1ccc3c(c1)CCC3)C(=O)OC)CCC2 (configuration not stated) | > 200 µM | 126 µM | – |
| COC(=O)Cc1cccc2c1CCC2=O | > 200 µM | > 200 µM | – |
| Clc1nc(NC23CC4CC(CC(C4)C2)C3)nc(NC23CC4CC(CC(C4)C2)C3)n1 | > 200 µM | 52.5 µM | – |
